{"source": "paper PMC6994497", "about": "“Structural basis for Glycan-receptor binding by mumps virus hemagglutinin-neuraminidase” (Scientific Reports, 2020)", "molecular_target": "T1, MuV-HN (Mumps orthorubulavirus, UniProt Q9WAF5)", "T1 construct": "pHLsec N-terminal secretion signal, C-terminal His6 tag; secreted from HEK293S GnTI(-) cells; Ni-NTA and size exclusion", "T1 sequence (Q9WAF5 96-582)": "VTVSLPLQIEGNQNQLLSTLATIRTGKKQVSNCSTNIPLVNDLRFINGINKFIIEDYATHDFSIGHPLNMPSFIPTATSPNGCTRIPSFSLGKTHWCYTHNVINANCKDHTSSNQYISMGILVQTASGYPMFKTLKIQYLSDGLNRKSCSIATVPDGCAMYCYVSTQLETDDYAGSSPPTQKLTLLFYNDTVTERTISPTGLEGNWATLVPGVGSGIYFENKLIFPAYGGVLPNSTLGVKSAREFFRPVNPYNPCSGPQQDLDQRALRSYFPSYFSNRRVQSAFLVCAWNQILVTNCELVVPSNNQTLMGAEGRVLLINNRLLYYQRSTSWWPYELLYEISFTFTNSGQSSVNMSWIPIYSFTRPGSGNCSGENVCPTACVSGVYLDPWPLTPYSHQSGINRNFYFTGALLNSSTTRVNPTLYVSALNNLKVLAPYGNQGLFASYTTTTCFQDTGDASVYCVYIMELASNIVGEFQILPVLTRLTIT", "assay": "STD NMR", "type": "binding", "details": "deuterated phosphate buffer pH 7.4; reaction mixture after hydrolysis of 1, also free reducing sialic acid", "data": [{"molecule": "CC(=O)N[C@H]1[C@H]([C@H](O)[C@H](O)CO)OC(O)(C(=O)O)C[C@@H]1O", "note": "(stereo partly shown) [reducing Sia]", "values": [{"measurement": "STD NMR", "value": "the protein was able to bind the reducing sialic acid produced during the hydrolysis reaction"}]}]}
